Data reported in patent US20090306060A1 (priority 2004, published 2009).
Read-outs that look alike come from different tables or passages of the source.

System: hybrid corn varieties
Assay type: in vivo
Conditions: for GY BU (2) (Grain Yield in bushels) / PC # (1): IFSA Inbred FR-A
[1] = Fludioxonil 3.5 GA/100 Kg seed, Azoxystrobin 1 GA/100 Kg seed
[2] = IFSA Inbred FR-C, Fludioxonil 2.5 GA/100 Kg seed
[3] = IFSA Inbred FR-C, Fludioxonil 3.5 GA/100 Kg seed, Azoxystrobin 1 GA/100 Kg seed
[4] = IFSA Inbred FR-D, Fludioxonil 2.5 GA/100 Kg seed
[5] = IFSA Inbred FR-D, Fludioxonil 3.5 GA/100 Kg seed, Azoxystrobin 1 GA/100 Kg seed
[6] = IFSA Inbred FR-F, Fludioxonil 2.5 GA/100 Kg seed
[7] = IFSA Inbred FR-F, Fludioxonil 3.5 GA/100 Kg seed, Azoxystrobin 1 GA/100 Kg seed
[8] = IFSA Inbred FR-G, Fludioxonil 2.5 GA/100 Kg seed
[9] = IFSA Inbred FR-G, Fludioxonil 3.5 GA/100 Kg seed, Azoxystrobin 1 GA/100 Kg seed
[10] = IFSA Inbred W-A, Fludioxonil 2.5 GA/100 Kg seed
[11] = IFSA Inbred W-A, Fludioxonil 3.5 GA/100 Kg seed, Azoxystrobin 1 GA/100 Kg seed
[12] = IFSA Inbred W-B, Fludioxonil 2.5 GA/100 Kg seed
[13] = IFSA Inbred W-B, Fludioxonil 3.5 GA/100 Kg seed, Azoxystrobin 1 GA/100 Kg seed

| SMILES | GY BU (2) (Grain Yield in bushels) [1] [a BU] | PC # (1) [1] [a] | GY BU [3] | PC # [3] [ab] | GY BU [5] [a BU] | PC # [5] [a] | GY BU [7] | PC # [7] | GY BU [9] [a BU] | PC # [9] | GY BU [11] [ab BU] | PC # [11] [a] | GY BU [13] [a BU] | PC # [13] | also measured |
| --- | --- | --- | --- | --- | --- | --- | --- | --- | --- | --- | --- | --- | --- | --- | --- |
| N#Cc1c[nH]cc1-c1cccc2c1OC(F)(F)O2 [Fludioxonil, fludioxonil] | 180 | 23744 | 176 b BU | 23915 | 185 | 24599 | 225 a BU | 24428 a | 85 | 11787 ab | 180 | 19986 | 204 | 22036 b | GY BU (2) (Grain Yield in bushels) (Fludioxonil 2.5 GA/100 Kg seed): 181 a BU; PC # (1) (Fludioxonil 2.5 GA/100 Kg seed): 23403 a; GY BU [2]: 198 a BU; PC # [2]: 24428 a; GY BU [4]: 184 a BU; PC # [4]: 23574 a; GY BU [6]: 183 b BU; PC # [6]: 19986 b; GY BU [8]: 83 a BU; PC # [8]: 13495 a; GY BU [10]: 172 ab BU; PC # [10]: 19474 a; GY BU [12]: 215 a BU; PC # [12]: 24599 a |
| CO/C=C(/C(=O)OC)c1ccccc1Oc1cc(Oc2ccccc2C#N)ncn1 [Azoxystrobin, azoxystrobin] | 168 | 23232 | 187 ab BU | 24086 | 193 | 23574 | 179 b BU | 18107 bc | 89 | 13153 a | 173 | 19645 | 204 | 23574 ab | – |
